Laboratory results taken from PubChem BioAssay (NCI).
Where “and” joins values, the source holds several entries; their conditions need not be identical. Equal entries are not always repeated.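 96-well plates; 48 h exposure; 5 concentrations. Endpoints by linear interpolation between flanking doses. Not reached: highest tested concentration assigned. GI50 is the concentration that inhibits growth by half. TGI denotes the concentration required for complete inhibition of growth.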

How the values were obtained:
Experiment in all cases: inhibition of tumour cell growth, NCI panel, 48 h
RPMI-8226 leukemia = test system: RPMI-8226 leukemia
OVCAR-8 ovarian = test system: OVCAR-8 ovarian
MOLT-4 leukemia = test system: MOLT-4 leukemia
NCI-H460 lung = test system: NCI-H460 lung
NCI/ADR-RES ovarian = test system: NCI/ADR-RES ovarian
A549 NSCLC = test system: A549 NSCLC
COLO 205 colon = test system: COLO 205 colon
HL-60(TB) leukemia = test system: HL-60(TB) leukemia
SN12C renal = test system: SN12C renal
OVCAR-4 ovarian = test system: OVCAR-4 ovarian

SMILES | TGI (RPMI-8226 leukemia) | TGI (OVCAR-8 ovarian) | TGI (MOLT-4 leukemia) | TGI (NCI-H460 lung) | TGI (NCI/ADR-RES ovarian) | TGI (A549 NSCLC) | TGI (COLO 205 colon) | TGI (HL-60(TB) leukemia) | TGI (SN12C renal) | TGI (OVCAR-4 ovarian) | GI50 (OVCAR-8 ovarian) | GI50 (NCI-H460 lung) | GI50 (NCI/ADR-RES ovarian) | GI50 (SN12C renal) | GI50 (A549 NSCLC) | GI50 (OVCAR-4 ovarian) | GI50 (COLO 205 colon) | GI50 (MOLT-4 leukemia)
O=C(O)CCC(NC(=O)c1ccc(Nc2nc3cc(C(F)(F)F)ccc3nc2C(=O)O)cc1)C(=O)O (stereo not drawn) | > 100 µM | > 100 µM | > 100 µM | > 100 µM | > 100 µM | > 100 µM | > 100 µM | > 100 µM | – | – | – | – | – | – | – | – | – | –
CCN1CCC(O)(/C=C/c2ccc(C(C)C)cc2)C(C(=O)/C=C/c2ccc(C(C)C)cc2)C1 (stereo not drawn) | – | 4.31 µM | 5.18 µM | 3.35 µM | 8.44 µM | 11.5 µM | 5.11 µM | > 26.8 µM | 6.06 µM | 8.71 µM | – | – | – | – | – | – | – | –
O=C(CSc1nc2ccccc2c(=O)n1-c1ccccc1)N=Nc1c(O)[nH]c2ccc(F)cc12 | 4.65 µM | – | 3.43 µM | 4.69 µM | 5.48 µM | 21.6 µM | 5.73 µM | 3.96 µM | – | 4.34 µM | – | – | – | – | – | – | – | –
COc1cc(CS(=O)c2ccc(O)cc2)cc(OC)c1OC (stereo not drawn) | > 100 µM | > 100 µM | > 100 µM | > 100 µM | > 100 µM | > 100 µM | > 100 µM | > 100 µM | > 100 µM | – | – | – | – | – | – | – | – | –
C=C(c1ccccc1)c1ccccc1-c1cc(-c2ccccc2)cc(-c2ccccc2)n1 | > 100 µM | > 100 µM | > 100 µM | > 100 µM | > 100 µM | > 100 µM | – | > 100 µM | > 100 µM | – | – | – | – | – | – | – | – | –
COC(=O)C1=C(C(=O)OC)SC2(S1)C(C(=O)OC)=C(C(=O)OC)Sc1c2ssc1=NC(C)(C)C | – | 3.77 µM | 2.16 µM | – | 7.73 µM | 8.69 µM | 3.22 µM | 4.73 µM | 2.52 µM | 3.32 µM | – | – | – | – | – | – | – | –
C=C(C(=O)O[C@H]1C(=O)C2=C(C)CCC3C(=C)C(=O)O[C@@H]3C2[C@]1(C)O)C1CC[C@]2(C)CCCC(=C)[C@H]2C1 (stereo partly drawn) | – | 12.3 µM and 13.1 µM | 5.38 µM | 10.4 µM and 11.1 µM | 33.6 µM and > 23.8 µM | 12.9 µM and 24.5 µM | 23 µM and 34.8 µM | 4.35 µM | 15.5 µM and 8.62 µM | 13.4 µM and 11.3 µM | 5.67 µM | 0.0398 µM | 8.52 µM | 7.25 µM | 5.59 µM | 6.69 µM | 13.7 µM | –
CN1CCN(C2=CC(=O)c3c(O)ccc(O)c3C2=O)CC1 | 6.25 µM | – | 4.75 µM | 3.52 µM | > 10 µM | 3.5 µM | 0.31 µM | 0.785 µM | 2.99 µM | 3.46 µM | – | – | – | – | – | – | – | –
Brc1ccc2c(-c3csc(-c4c[nH]c5ccccc45)n3)c[nH]c2c1 | 46.6 µM | 33.1 µM | 36.3 µM | 34.4 µM | 35.9 µM | 29.2 µM | 25.4 µM | – | 39.2 µM | 39.8 µM | – | – | – | – | – | – | – | 19.9 µM
Cc1sc2nc3n(c(=O)c2c1C)N=CN(c1ccc(F)cc1)C3 | > 100 µM | > 100 µM | > 100 µM | > 100 µM | > 100 µM | > 100 µM | > 100 µM | – | > 100 µM | 38.5 µM | – | – | – | – | – | – | – | –
CC1=C(C)C(=O)C(C2=CC(=O)C=CC2=O)=C(C2=CC(=O)C=CC2=O)C1=O | – | > 87.7 µM | 44.8 µM | > 100 µM | > 100 µM | > 100 µM | > 100 µM | > 100 µM | > 71.8 µM | 51.3 µM | – | – | – | – | – | – | – | –
